Test results published in ChEMBL document CHEMBL4673309, “Synthesis and anticancer activity of new coumarin-3-carboxylic acid derivatives as potential lactatetransportinhibitors” (Bioorg Med Chem, 2021).
The source made the active and inactive calls. The rule behind the calls is not given here.

Assays:
[1] = tested on: HCT-116; experiment: Cytotoxicity against human HCT-116 cells overexpressing MCT-1 assessed as reduction in cell viability measured after 72 hrs by MTT assay; type: functional, cell-based; conditions: HCT-116, 72 h
[2] = tested on: HeLa; experiment: Cytotoxicity against human HeLa cells overexpressing MCT-1 assessed as reduction in cell viability measured after 72 hrs by MTT assay; type: functional, cell-based
[3] = tested on: NCM460; experiment: Cytotoxicity against human NCM460 cells harboring low MCT1 expression incubated for 72 hrs by MTT assay; type: cell-based; conditions: ncm460, 72 h
[4] = tested on: HCT-116; experiment: Induction of apoptosis in human HCT-116 cells assessed as early apoptosis measured after 48 hrs by annexinV-FITC/propidium iodide staining based by flow cytometry (reference value: 3.42 %); type: functional
[5] = tested on: HCT-116; experiment: Decrease in glucose consumption in human HCT-116 cells at IC50 after 4 to 24 hrs by glucose oxidase based colorimetric assay; type: functional, cell-based; conditions: time 4-24 hrs
[6] = tested on: HCT-116; experiment: Induction of apoptosis in human HCT-116 cells assessed as late apoptotic cells measured after 48 hrs by annexinV-FITC/propidium iodide staining based by flow cytometry (reference value: 2.78 %); type: functional
[7] = tested on: HeLa; experiment: Inhibition of lactate transport in human HeLa cells assessed as increase in intracellular lactate level at IC50 measured after 8 to 24 hrs by colorimetric assay; type: functional, cell-based; conditions: time 8-24 hrs
[8] = tested on: HCT-116; experiment: Reduction of lactate production in human HCT-116 cells at IC50 after 4 to 24 hrs by colorimetric assay; type: functional, cell-based; conditions: time 4-24 hrs
[9] = tested on: HeLa; experiment: Decrease in intracellular glucose level in human HeLa cells at IC50 after 4 hrs by colorimetric assay; type: functional, cell-based
[10] = tested on: HeLa; experiment: Induction of apoptosis in human HeLa cells assessed as late apoptotic cells measured after 48 hrs by annexinV-FITC/propidium iodide staining based by flow cytometry (reference value: 3.85 %); type: functional
[11] = tested on: HCT-116; experiment: Antiproliferative activity against human HCT-116 cells assessed as reduction in cell proliferation at IC50 incubated for 6 days and measured on day 6 by MTS assay; type: functional, cell-based; conditions: time 6.0 day
[12] = tested on: HeLa; experiment: Induction of apoptosis in human HeLa cells assessed as early apoptosis measured after 48 hrs by annexinV-FITC/propidium iodide staining based by flow cytometry (reference value: 2.94 %); type: functional
[13] = tested on: HeLa; experiment: Reduction of lactate production in human HeLa cells at IC50 after 8 hrs by colorimetric assay; type: functional, cell-based
[14] = tested on: HCT-116; experiment: Downregulation of MCT1 expression in human HCT-116 cells at 0.01 to 100 uM measured after 48 hrs by Western blot analysis; type: functional, cell-based; conditions: dose 0.01-100 µM
[15] = tested on: HCT-116; experiment: Inhibition of lactate transport in human HCT-116 cells assessed as increase in intracellular lactate level at IC50 measured after 8 hrs by colorimetric assay; type: functional, cell-based
[16] = tested on: HeLa; experiment: Decrease in glucose consumption in human HeLa cells at IC50 after 12 hrs by glucose oxidase based colorimetric assay; type: functional, cell-based
[17] = tested on: HeLa; experiment: Decrease in intracellular glucose level in human HeLa cells at IC50 after 24 hrs by colorimetric assay; type: functional, cell-based
[18] = tested on: HCT-116; experiment: Inhibition of lactate uptake in human HCT-116 cells at 0.01 to 100 uM after 24 hrs by colorimetric assay; type: functional, cell-based; conditions: dose 0.01-100 µM
[19] = tested on: HeLa; experiment: Inhibition of lactate uptake in human HeLa cells at low concentration after 24 hrs by colorimetric assay; type: functional, cell-based
[20] = tested on: HCT-116; experiment: Decrease in intracellular glucose level in human HCT-116 cells at IC50 after 4 hrs by colorimetric assay; type: functional, cell-based
[21] = tested on: HCT-116; experiment: Decrease in intracellular glucose level in human HCT-116 cells at IC50 after 24 hrs by colorimetric assay; type: functional, cell-based
[22] = tested on: HeLa; experiment: Inhibition of lactate uptake in human HeLa cells at high concentration after 24 hrs by colorimetric assay; type: functional, cell-based
[23] = tested on: HeLa; experiment: Downregulation of MCT1 expression in human HeLa cells at 0.01 to 100 uM measured after 48 hrs by Western blot analysis; type: functional, cell-based; conditions: dose 0.01-100 µM
[24] = tested on: HeLa; experiment: Antiproliferative activity against human HeLa cells assessed as reduction in cell proliferation at IC50 incubated for 6 days and measured on day 6 by MTS assay; type: functional, cell-based; conditions: time 6.0 day

Q: Which IC50 [1] does the source give for `CCN(CC)c1ccc2cc(C(=O)N/N=C(/C)c3cccs3)c(=O)oc2c1` here?
A: > 100 µM

Q: And the IC50 [2]?
A: > 100 µM

Q: And the Activity [3]?
A: Non-Toxic

Q: For `O=C(Nc1ccccc1)c1cc2ccc(OCc3ccccc3)cc2oc1=O`, which IC50 [1] is on record?
A: > 100 µM

Q: And the IC50 [2]?
A: > 100 µM

Q: And the Activity [3]?
A: Non-Toxic

Q: With `O=C(NCCNC(=O)c1cc2ccc(OCc3ccccc3)cc2oc1=O)c1cc2ccc(OCc3ccccc3)cc2oc1=O` as the compound, how does the IC50 [1] read?
A: 15.9 µM

Q: And the IC50 [2]?
A: 12.1 µM

Q: And the Activity [3]?
A: Non-Toxic

Q: `CCCOc1ccc2cc(C(=O)NN)c(=O)oc2c1` was tested. Which IC50 [1] did it give?
A: 69.8 µM

Q: What about the IC50 [2] of the same compound?
A: > 100 µM

Q: And the Activity [3]?
A: Non-Toxic

Q: Which results are given for `CCCOc1ccc2cc(C(=O)NCCO)c(=O)oc2c1`?
A: IC50 [1]: > 100 µM; IC50 [2]: 22.6 µM; Activity [3]: Non-Toxic

Q: Which results are given for `O=C(NO)c1cc2ccc(OCc3ccccc3)cc2oc1=O`?
A: IC50 [1]: 39.5 µM; IC50 [2]: 31.8 µM; Activity [3]: Non-Toxic

Q: Which results are given for `O=C(NCCO)c1cc2ccc(OCc3cccc(Br)c3)cc2oc1=O`?
A: IC50 [1]: 30.8 µM; IC50 [2]: 17.6 µM; Activity [3]: Non-Toxic

Q: Which results are given for `O=C(NCCO)c1cc2ccc(OCc3ccccc3)cc2oc1=O`?
A: IC50 [1]: 18.7 µM; IC50 [2]: 14.2 µM; Activity [3]: Non-Toxic

Q: What does the source list for `CCN(CC)c1ccc2cc(C(=O)NC3CC3)c(=O)oc2c1`?
A: IC50 [1]: > 100 µM; IC50 [2]: > 100 µM; Activity [3]: Non-Toxic

Q: With `CCN(CC)c1ccc2cc(C(=O)N/N=C(/C)c3cccnc3)c(=O)oc2c1` as the compound, how does the IC50 [1] read?
A: > 100 µM

Q: And the IC50 [2]?
A: 70 µM

Q: What about the Activity [3] of the same compound?
A: Non-Toxic

Q: Which results are given for `CCN(CC)c1ccc2cc(C(=O)NCCO)c(=O)oc2c1`?
A: IC50 [1]: > 100 µM; IC50 [2]: > 100 µM; Activity [3]: Non-Toxic

Q: With `O=c1c(O)c(-c2ccc(O)c(O)c2)oc2cc(O)cc(O)c12` [QUERCETIN] as the compound, how does the Activity [4] read?
A: 5.35%

Q: And the inhibition [5]?
A: Active

Q: What about the Activity [6] of the same compound?
A: 10.3%

Q: And the inhibition [7]?
A: Active

Q: And the IC50 [1]?
A: 43.9 µM

Q: And the inhibition [8]?
A: Active

Q: And the inhibition [9]?
A: Active

Q: What about the Activity [10] of the same compound?
A: 14.2%

Q: What about the IC50 [2] of the same compound?
A: 22.5 µM

Q: What about the Activity [3] of the same compound?
A: Non-Toxic

Q: And the Activity [11]?
A: Active

Q: And the Activity [12]?
A: 4.92%

Q: What about the inhibition [13] of the same compound?
A: Active

Q: With `CCN(CC)c1ccc2cc(C(=O)NN)c(=O)oc2c1` as the compound, how does the inhibition [14] read?
A: Active

Q: What about the Activity [4] of the same compound?
A: 2.52%

Q: And the inhibition [5]?
A: Active

Q: And the Activity [6]?
A: 5.94%

Q: And the inhibition [7]?
A: Active

Q: What about the inhibition [15] of the same compound?
A: Active

Q: And the inhibition [16]?
A: Active

Q: And the inhibition [17]?
A: Active

Q: What about the IC50 [1] of the same compound?
A: 3.36 µM

Q: What about the inhibition [18] of the same compound?
A: Active

Q: And the inhibition [8]?
A: Active

Q: What about the Activity [10] of the same compound?
A: 6.47%

Q: And the IC50 [2]?
A: 5.48 µM

Q: And the Activity [3]?
A: Non-Toxic

Q: What about the Activity [11] of the same compound?
A: Active

Q: What about the Activity [12] of the same compound?
A: 5.28%

Q: And the inhibition [19]?
A: Active

Q: What about the inhibition [20] of the same compound?
A: Active

Q: And the inhibition [21]?
A: inactive

Q: What about the inhibition [22] of the same compound?
A: inactive

Q: And the inhibition [23]?
A: Active

Q: And the inhibition [13]?
A: Active

Q: What about the Activity [24] of the same compound?
A: Active

Q: Which results are given for `NNC(=O)c1cc2ccc(OCc3cccc(Br)c3)cc2oc1=O`?
A: IC50 [1]: > 100 µM; IC50 [2]: > 100 µM; Activity [3]: Non-Toxic

Q: Which results are given for `CCN(CC)c1ccc2cc(C(=O)NC(C)C)c(=O)oc2c1`?
A: IC50 [1]: > 100 µM; IC50 [2]: 73 µM; Activity [3]: Non-Toxic

Q: With `NNC(=O)c1cc2ccc(OCc3ccccc3)cc2oc1=O` as the compound, how does the IC50 [1] read?
A: > 100 µM

Q: And the IC50 [2]?
A: > 100 µM

Q: What about the Activity [3] of the same compound?
A: Non-Toxic

Q: Which results are given for `O=C(NCCNC(=O)c1cc2ccc(OCc3ccc([N+](=O)[O-])cc3)cc2oc1=O)c1cc2ccc(OCc3ccc([N+](=O)[O-])cc3)cc2oc1=O`?
A: IC50 [1]: 68.1 µM; IC50 [2]: 13.9 µM; Activity [3]: Non-Toxic

Q: Which results are given for `O=C(NCCNC(=O)c1cc2ccc(OCc3cccc(Br)c3)cc2oc1=O)c1cc2ccc(OCc3cccc(Br)c3)cc2oc1=O`?
A: IC50 [1]: 11.6 µM; IC50 [2]: 5.52 µM; Activity [3]: Non-Toxic

Q: With `CCOc1ccc2cc(C(=O)NCCO)c(=O)oc2c1` as the compound, how does the IC50 [1] read?
A: > 100 µM

Q: And the IC50 [2]?
A: > 100 µM

Q: And the Activity [3]?
A: Non-Toxic

Q: Which results are given for `N#C/C(=C\c1ccc(O)cc1)C(=O)O` [alpha-CYANO-4-HYDROXYCINNAMIC ACID]?
A: Activity [4]: 2.07%; inhibition [5]: Active; Activity [6]: 9.36%; inhibition [7]: Active; IC50 [1]: 1650 µM; inhibition [8]: Active; inhibition [9]: Active; Activity [10]: 13.6%; IC50 [2]: 2140 µM; Activity [3]: Non-Toxic; Activity [12]: 8.8%; inhibition [13]: Active; Activity [24]: Active

Q: `O=C(NCCO)c1cc2ccc(OCc3ccc([N+](=O)[O-])cc3)cc2oc1=O` was tested. Which IC50 [1] did it give?
A: 33.4 µM

Q: And the IC50 [2]?
A: 6.89 µM

Q: What about the Activity [3] of the same compound?
A: Non-Toxic

Q: Which IC50 [1] does the source give for `NNC(=O)c1cc2ccc(OCc3ccc([N+](=O)[O-])cc3)cc2oc1=O` here?
A: > 100 µM

Q: What about the IC50 [2] of the same compound?
A: > 100 µM

Q: And the Activity [3]?
A: Non-Toxic

Q: Which IC50 [1] does the source give for `CCN(CC)c1ccc2cc(C(=O)NO)c(=O)oc2c1` here?
A: 37.6 µM

Q: What about the IC50 [2] of the same compound?
A: 35.9 µM

Q: And the Activity [3]?
A: Non-Toxic

Q: Which IC50 [1] does the source give for `CCOc1ccc2cc(C(=O)NN)c(=O)oc2c1` here?
A: > 100 µM

Q: What about the IC50 [2] of the same compound?
A: 38.3 µM

Q: And the Activity [3]?
A: Non-Toxic
